Data: patent publication US7935706B2, “Nitrogen-containing heterocycle derivatives substituted with cyclic group” (Shionogi & Co., Ltd., priority 2006, dated 2011)
Where two headings read alike, the source gives them in different places.

Key:
[1] = target: T1, NR1/NR2B receptor (Rattus norvegicus, UniProt P35439+Q00960); assay: Test of binding with NMDA receptor (NR1/NR2B receptor): competition with [3H]-Ifenprodil on rat cerebral cortex membrane specimen
T1 construct: from tissue; host or cells: rat cerebral cortex membranes (male Slc: Wistar rat)
T1 sequence (Q00960 27-1482, other chains not shown): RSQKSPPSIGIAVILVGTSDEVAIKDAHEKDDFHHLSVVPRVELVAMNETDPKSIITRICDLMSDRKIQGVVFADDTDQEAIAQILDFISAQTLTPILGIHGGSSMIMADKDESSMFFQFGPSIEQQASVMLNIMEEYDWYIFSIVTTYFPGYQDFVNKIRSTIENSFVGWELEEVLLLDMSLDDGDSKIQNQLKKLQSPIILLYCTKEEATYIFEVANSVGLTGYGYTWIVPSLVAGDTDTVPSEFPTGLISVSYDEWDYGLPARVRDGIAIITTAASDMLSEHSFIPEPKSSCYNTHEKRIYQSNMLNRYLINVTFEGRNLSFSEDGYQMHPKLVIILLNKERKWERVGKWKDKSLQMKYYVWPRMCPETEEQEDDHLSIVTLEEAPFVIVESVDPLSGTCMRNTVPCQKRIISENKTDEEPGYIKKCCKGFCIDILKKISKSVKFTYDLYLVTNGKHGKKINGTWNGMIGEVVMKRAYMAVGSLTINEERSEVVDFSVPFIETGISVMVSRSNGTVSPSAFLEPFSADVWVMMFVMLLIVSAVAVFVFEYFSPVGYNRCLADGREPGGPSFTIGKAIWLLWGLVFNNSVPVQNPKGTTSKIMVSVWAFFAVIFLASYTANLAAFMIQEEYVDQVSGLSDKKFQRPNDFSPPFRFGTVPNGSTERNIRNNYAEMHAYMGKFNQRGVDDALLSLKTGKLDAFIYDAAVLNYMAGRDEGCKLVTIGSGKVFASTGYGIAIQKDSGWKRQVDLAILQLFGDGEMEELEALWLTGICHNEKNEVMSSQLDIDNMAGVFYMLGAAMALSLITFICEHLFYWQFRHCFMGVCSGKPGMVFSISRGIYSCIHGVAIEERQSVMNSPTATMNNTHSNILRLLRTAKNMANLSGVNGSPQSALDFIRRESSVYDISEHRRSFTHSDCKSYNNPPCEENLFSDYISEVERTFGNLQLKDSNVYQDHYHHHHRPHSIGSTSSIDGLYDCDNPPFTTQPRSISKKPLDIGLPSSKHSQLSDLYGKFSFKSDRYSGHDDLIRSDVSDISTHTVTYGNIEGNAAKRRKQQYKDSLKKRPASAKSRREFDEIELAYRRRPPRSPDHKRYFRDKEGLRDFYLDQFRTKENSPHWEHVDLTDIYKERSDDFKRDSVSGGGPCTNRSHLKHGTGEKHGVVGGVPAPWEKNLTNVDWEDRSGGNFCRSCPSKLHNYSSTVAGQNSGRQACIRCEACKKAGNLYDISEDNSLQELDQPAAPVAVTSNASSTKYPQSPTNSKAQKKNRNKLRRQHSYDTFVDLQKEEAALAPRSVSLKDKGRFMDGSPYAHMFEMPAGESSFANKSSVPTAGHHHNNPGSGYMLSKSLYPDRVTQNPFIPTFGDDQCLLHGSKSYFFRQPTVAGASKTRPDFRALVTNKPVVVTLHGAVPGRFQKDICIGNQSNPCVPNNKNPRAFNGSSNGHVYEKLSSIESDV
Method: Test of Binding with NMDR Receptor (NR1/NR2B Receptor)
Using Ifenprodil which is an antagonist specific for a NR1/NR2B subtype receptor as a ligand, an experiment of competition between a receptor and a test compound was performed.
Using a male Slc: Wistar rat as an animal, a brain was isolated after decapitation, and a cerebral cortex was fractionated. The cerebral cortex was homogenized with a 20-fold amount of an ice-cooled 50 mM Tris/HCl buffer (pH 7.4), and the homogenate was centrifuged at 4° C. and 27,500×g for 10 minutes. The resulting precipitate was suspended in the same buffer, and this was again centrifuged. This operation was repeated for three times, the resulting precipitate was suspended in a buffer, and this was stored at −80° C. Immediately before an experiment, the frozen suspension was thawed at room temperature, this was centrifuged at 4° C. and 27,500×g for 10 minutes, and the resulting precipitate was suspended in a buffer. Further, the suspension was diluted 10-fold with a buffer, and this was used as a membrane specimen in an experiment. In a binding experiment, to 470 μl of the membrane specimen were added […] of each of test compounds having different concentrations, 10 μl of a labeled ligand [^3H]-Ifenprodil and 10 μl GBR-12909, followed by incubation at an ice temperature for 120 minutes. A concentration of [^3H]-Ifenprodil of the labeled ligand was finally 5 nM, and a concentration of GBR-12909 was finally 3 μM. For measuring a total binding amount, DMSO as a solvent was used and, for measuring a non-specific binding amount, 100 μM Ifenprodil was used. GBR-12909 was added in order to block binding of [^3H]-Ifenprodil to non-polyamine-sensitive site. After incubation, a bound formand a free foramwere separated using Whatman GF/C filter (manufactured by Whatman), and the filter was washed with 2.5 ml ice-cooled buffer four times. The filter was immersed in liquid scintillation (Cryasol I, manufactured by Nacalai tesque), and radioactivity (dpm) was measured with a liquid scintillation counter. From a measured value, a binding inhibition rate (%) was obtained by the following equation, and a dose at which binding is inhibited 50% (IC50) was calculated. A formula of GBR-12909 (vanoxerine) is shown below.
Binding inhibition rate(%)=100−[(binding amount in the presence of test compound−non-specific binding amount)/(total binding amount−non-specific binding amount)]×100

[2] = target: T2, NMDA receptor (NR1 subunit and NR2B subunit) (Mus musculus, UniProt P35438+Q01097); assay: Measurement of expression of NMDA receptor and Ca ion influx amount (glutamic acid/glycine-induced, HEK293 cell co-expressing NR1 and NR2B subunits, Fluo-3/AM); type: cell-based
T2 construct: expressed in transfected cells; host or cells: HEK293 cells, transient transfection with pcDNA3.1 plasmids
T2 sequence (Q01097 27-1482, other chains not shown): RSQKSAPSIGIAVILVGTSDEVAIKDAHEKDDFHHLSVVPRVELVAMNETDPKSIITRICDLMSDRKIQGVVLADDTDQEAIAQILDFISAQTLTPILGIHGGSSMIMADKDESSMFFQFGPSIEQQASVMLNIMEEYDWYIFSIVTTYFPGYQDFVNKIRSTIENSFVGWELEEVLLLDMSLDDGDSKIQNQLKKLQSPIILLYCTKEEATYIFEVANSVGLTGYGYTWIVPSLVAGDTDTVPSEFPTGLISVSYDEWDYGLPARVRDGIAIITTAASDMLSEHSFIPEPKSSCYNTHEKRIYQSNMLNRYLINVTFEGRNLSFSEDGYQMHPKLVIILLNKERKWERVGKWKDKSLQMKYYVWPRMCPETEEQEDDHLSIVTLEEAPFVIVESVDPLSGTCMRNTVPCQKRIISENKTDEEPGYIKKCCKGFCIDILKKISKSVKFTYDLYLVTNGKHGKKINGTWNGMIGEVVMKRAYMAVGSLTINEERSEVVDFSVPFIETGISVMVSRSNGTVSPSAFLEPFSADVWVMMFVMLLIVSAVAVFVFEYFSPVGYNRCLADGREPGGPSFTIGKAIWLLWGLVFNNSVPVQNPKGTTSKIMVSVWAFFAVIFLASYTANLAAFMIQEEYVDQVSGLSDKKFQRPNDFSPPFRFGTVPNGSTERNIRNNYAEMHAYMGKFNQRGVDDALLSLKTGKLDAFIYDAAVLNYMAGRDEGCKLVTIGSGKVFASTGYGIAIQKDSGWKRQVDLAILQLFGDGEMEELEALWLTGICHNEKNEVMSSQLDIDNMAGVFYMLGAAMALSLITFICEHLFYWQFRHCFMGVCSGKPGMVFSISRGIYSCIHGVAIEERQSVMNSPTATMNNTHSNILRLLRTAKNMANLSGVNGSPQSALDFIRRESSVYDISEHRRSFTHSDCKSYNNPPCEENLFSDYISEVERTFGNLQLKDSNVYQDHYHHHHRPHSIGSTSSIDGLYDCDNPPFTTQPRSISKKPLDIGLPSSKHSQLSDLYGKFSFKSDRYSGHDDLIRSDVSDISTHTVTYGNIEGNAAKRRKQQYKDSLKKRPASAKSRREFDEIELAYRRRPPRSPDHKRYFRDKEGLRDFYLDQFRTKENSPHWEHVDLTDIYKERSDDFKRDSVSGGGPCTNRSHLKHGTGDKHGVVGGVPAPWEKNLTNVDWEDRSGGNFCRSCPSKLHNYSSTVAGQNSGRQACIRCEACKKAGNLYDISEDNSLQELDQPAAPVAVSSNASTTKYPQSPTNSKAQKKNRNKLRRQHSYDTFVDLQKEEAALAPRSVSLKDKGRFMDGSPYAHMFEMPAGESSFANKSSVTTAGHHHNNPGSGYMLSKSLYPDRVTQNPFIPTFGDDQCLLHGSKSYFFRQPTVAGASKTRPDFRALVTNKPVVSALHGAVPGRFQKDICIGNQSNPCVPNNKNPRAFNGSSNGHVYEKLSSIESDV
Method: Measurement of Expression of NMDA Receptor and Ca Ion Influx Amount
A complementary DNA (cDNA) of a mouse NMDA receptor subunit was transiently introduced into a HEK293 cell and, after 1 day from introduction, change in a glutamic acid/glycine-induced intracelluar Ca amount was measured using a Ca ion reactive fluorescent coloring matter.
The HEK293 cell was cultured, and passaged using a modified Dulbecco's Eagle medium (DMEM, low glucose).
The HEK293 cell (20,000/well) was seeded on a 96-well plate, a NR1 subunit and a NR2B subunit of the NMDA receptor incorporated into the pcDNA3.1 plasmid were transiently introduced into a cell, and the subunits were co-expressed. An introduction amount of a DNA was 0.025 μg in the case of the NR1 subunit, and 0.075 μg in the case of NR2B subunit per well. For the cell after introduction, cell death was inhibited using 50 μM of the NMDA receptor antagonist MK-801.
For adjusting a test compound and washing a cell, Krebs/Ringer/Hepes buffer (KRH, Ca: 5 mM) was used.
After 1 day from introduction, the NMDA receptor antagonist MK-801 was washed out using the KRH buffer, and a Ca ion indication fluorescent coloring matter Fluo-3/AM was made to be taken into the cell. Ca ion influx was induced with 20 μM glutamic acid/2 μM glycine. Change in a fluorescent amount due to Ca ion influx into the cell was measured at excitation of 480 nm using a fluorescent imaging system FDSS 3000.
From a measured value of the test compound, a Ca ion influx inhibition rate (%) was obtained by the following equation, and a dose at which influx is inhibited 50% (IC50) was calculated.
Ca ion influx inhibition rate(%)=100−[(fluorescent amount in the presence of test compound−background fluorescent amount)/(total fluorescent amount−background fluorescent)]×100

[3] = same binding test, read-out: IC50 (binding with NR1/NR2B receptor)
[4] = same Ca ion influx test, read-out: IC50 (Ca ion influx inhibition)
[5] = [3H]-Ifenprodil 5 nM, GBR-12909 3 μM, rat cerebral cortex membranes, ice temperature 120 minutes, read-out: NR2B (IC50 μM)
[6] = Ca ion influx induced with 20 μM glutamic acid/2 μM glycine, HEK293 cell with mouse NR1/NR2B, read-out: Ca2+ IC50

IC50 [1, 3] [µM]	melting point	IC50 [2, 4] [µM]	IC50 [1, 5] [µM]	IC50 [2, 6] [µM]	Structure (SMILES)
≤ 0.1	224 to 226 °C	–	–	–	COc1ccc(N2CCN(C(=O)C(=O)Nc3ccc4[nH]c(=O)oc4c3)CC2)cc1Cl [Compound I-247]
≤ 0.1	123 to 125 °C	≤ 0.1	–	–	COc1ccc(N2CCN(C(=O)C(=O)Nc3ccc4[nH]c(=O)oc4c3)[C@H](C)C2)cc1Cl [Compound I-249]
≤ 0.1	197 to 198 °C	≤ 0.1	–	–	C[C@@H]1CN(C(=O)C(=O)Nc2ccc3[nH]c(=O)oc3c2)CCN1c1ccc(C(F)(F)F)cn1 [Compound I-209]
≤ 0.1	107 to 108 °C	–	–	–	C[C@@H]1CN(C(=O)C(=O)Nc2ccc3[nH]c(=O)oc3c2)CCN1c1ccc(F)c(Cl)c1 [Compound I-206]
–	232 to 234 °C	–	0.043	–	O=C(NCCC1CCN(c2ccc(Cl)cc2)CC1)c1ccc(=O)[nH]c1 [Compound I-1]
–	232 to 233 °C (dec.)	–	0.033	0.014	O=C(NCCC1CCN(c2ccc(C(F)(F)F)cc2)CC1)c1ccc(=O)[nH]c1 [Compound I-2]
–	236 to 238 °C (dec.)	–	0.043	0.02	O=C(NCCC1CCN(c2ccc(Br)cc2)CC1)c1ccc(=O)[nH]c1 [Compound I-5]
≤ 0.1	209 to 211 °C	–	–	–	O=C(C=C1CCN(c2ccc(F)c(Cl)c2)CC1)Nc1ccc2[nH]c(=O)oc2c1 [Compound I-205]
≤ 0.1	241 to 243 °C	–	–	–	O=C(Nc1ccc2[nH]c(=O)oc2c1)C(=O)N1CCN(c2ccc(Cl)cn2)CC1 [Compound I-204]
≤ 0.1	230 to 232 °C	≤ 0.1	–	–	O=C(NCCC1CCN(c2ccc(Cl)c(F)c2)CC1)c1ccc(=O)[nH]c1 [Compound I-208]
–	219 to 220 °C	–	0.09	0.025	O=C(C=C1CCN(c2ccc(C(F)(F)F)cn2)CC1)Nc1ccc2[nH]c(=O)sc2c1 [Compound I-66]
